BindingDB's records for patent US20250034135 (Hangzhou Healzen Therapeutics Co., 2025)

What was measured:
[1] = target: Isoform Bcl-X(L) of Bcl-2-like protein 1 (Bcl-xL) (Homo sapiens, UniProt Q07817); assay: BCL-XL Enzyme Molecular Level Activity Test
Protocol: (§1) In a white shallow 384-well plate, a total reaction volume was 10 μL. Specifically, it included 2 μL of the compound to be tested (2% DMSO), 4 L His-tagged recombinant protein, and 4 μL Biotin-tagged BIM protein peptide. After 1 hour of reaction, 5 μL of each Anti-His and streptavidin-tagged XL665 antibody diluents diluted with a detection buffer were added. After incubating at room temperature for 4 hours, the values were read using the Envision multifunctional microplate reader to detect the effect of the compound to be tested on the binding ability of BCL-XL to BIM protein peptides. The Envision parameter settings were exciting light at 320 nm, and emitting light at 615 nm and 665 nm. The binding ability of anti-apoptotic proteins to Bim protein peptides was indirectly reflected by the signal ratio of 665 nm and 615 nm. In the reaction, background wells without BCL2 and active wells for full binding of recombinant proteins without compounds and Bim protein peptides were set up.

[2] = target: Apoptosis regulator Bcl-2 (Homo sapiens, UniProt P10415); assay: Molecular Level Activity Test of Anti-Apoptotic Protein BCL2
Protocol: as §1, with “The detection of the binding ability between anti-apoptotic protein BCL2 and pro-apoptotic protein Bim was performed using Homogeneous Time-Resolved Fluorescence technology. The reaction of this method occurred in a” for “In a”, “plate, with” for “plate,”, “volume of” for “volume was”, “4 μL” for “4 L”, “of BCL2” for “of BCL-XL”, “to Bim” for “to BIM”

[3] = target: CYP3A4 (Homo sapiens, UniProt P08684); assay: CYP3A4 Enzyme Inhibitory Activity; conditions: recombinant CYP3A4 (CYP450 BACULOSOMES Plus reagent), probe Vivid substrate (Vivid CYP3A4 Green kit)
Sequence of CYP3A4 (P08684 whole entry): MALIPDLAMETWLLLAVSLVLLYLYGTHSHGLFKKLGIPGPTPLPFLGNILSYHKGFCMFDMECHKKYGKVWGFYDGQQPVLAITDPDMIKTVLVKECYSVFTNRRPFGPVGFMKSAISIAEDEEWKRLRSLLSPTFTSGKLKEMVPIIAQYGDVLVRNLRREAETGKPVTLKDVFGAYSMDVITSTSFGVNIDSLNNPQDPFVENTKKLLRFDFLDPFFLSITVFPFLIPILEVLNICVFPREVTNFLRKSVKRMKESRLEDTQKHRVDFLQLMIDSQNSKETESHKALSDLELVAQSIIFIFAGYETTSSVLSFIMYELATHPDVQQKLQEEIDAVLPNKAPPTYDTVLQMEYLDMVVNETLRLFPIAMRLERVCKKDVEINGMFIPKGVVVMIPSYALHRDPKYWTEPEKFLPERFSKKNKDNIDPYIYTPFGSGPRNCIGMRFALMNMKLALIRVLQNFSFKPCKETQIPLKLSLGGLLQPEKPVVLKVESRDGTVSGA
Protocol: The inhibitory activity of compounds on human CYP3A4 enzyme was detected using a VIVID™ CYP3A4 GREEN SCRNING KIT reagent kit. The Vivid™ CYP450 screening kit includes a Vivid™ substrate, Vivid™ fluorescence standard, reaction buffer, Vivid™ regeneration system, NADP+ and CYP450 BACULOSOMES™ Plus reagent. Operations were performed following the instructions, and a blank control group was set up without adding any compounds.

[4] = target: Apoptosis regulator Bcl-2 [G101V] (Homo sapiens, UniProt P10415, G101V); assay: Molecular Level Activity Test of Anti-Apoptotic Protein BCL2 (G101V)
Protocol: as §1, with “The detection of the binding ability between anti-apoptotic protein BCL2 (G101V) and pro-apoptotic protein Bim was performed using Homogeneous Time-Resolved Fluorescence technology. The reaction of this method occurred in a” for “In a”, “plate, with” for “plate,”, “volume of” for “volume was”, “4 μL” for “4 L”, “5 L” for “5 μL”, “of BCL2 (G101V)” for “of BCL-XL”

Sequence of Isoform Bcl-X(L) of Bcl-2-like protein 1 (Bcl-xL) (Q07817 whole entry G70A, canonical isoform): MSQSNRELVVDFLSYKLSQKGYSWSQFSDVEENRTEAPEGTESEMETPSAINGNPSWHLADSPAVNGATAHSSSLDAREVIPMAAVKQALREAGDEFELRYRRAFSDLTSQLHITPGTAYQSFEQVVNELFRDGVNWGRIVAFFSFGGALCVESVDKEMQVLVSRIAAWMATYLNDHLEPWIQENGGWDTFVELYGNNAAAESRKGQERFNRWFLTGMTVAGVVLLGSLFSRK

| Structure (SMILES) | IC50 [1] [nM] | IC50 [2] [nM] | further results |
| --- | --- | --- | --- |
| CC(C)c1ccccc1[C@@H]1CCCN1C1CC2(CCN(c3ccc(C(=O)NS(=O)(=O)c4cc([N+](=O)[O-])c(NCC5(F)CCN(C6COC6)CC5)c5[nH]cnc45)c(Oc4cnc5[nH]cc(F)c5c4)c3)CC2)C1 [US20250034135, Compound 012] | – | < 10 | – |
| COc1ccc(CN2CCN(C3CC4(CCN(c5ccc(C(=O)NS(=O)(=O)c6ccc(NC[C@H]7CC[C@](C)(O)CC7)c([N+](=O)[O-])c6)c(OC(C=N)Cc6cc[nH]c6)c5)CC4)C3)[C@H](c3ccccc3C(C)C)C2)cc1 (stereo partly specified) [US20250034135, Compound a] | – | – | IC50 [3]: 2550 nM |
| CC(C)c1ccccc1[C@@H]1CCCN1C1CC2(CCN(c3cc(Oc4cnc5[nH]cc(F)c5c4)c(C(=O)NS(=O)(=O)c4cc([N+](=O)[O-])c(NCC5(F)CCN(C6COC6)CC5)c5[nH]cnc45)cc3F)CC2)C1 [US20250034135, Compound 038] | – | < 10 | – |
| CC(C)c1ccccc1[C@@H]1CN(Cc2ccccc2F)CCN1C1CC2(CCN(c3cc(Oc4cnc5[nH]ccc5c4)c(C(=O)NS(=O)(=O)c4ccc(NCC5(F)CCOCC5)c([N+](=O)[O-])c4)cc3F)CC2)C1 [US20250034135, Compound 187] | > 500 | < 10 | – |
| CC(C)c1ccccc1[C@@H]1CCCN1C1CC2(CCN(c3cc(Oc4cnc5[nH]ccc5c4)c(C(=O)NS(=O)(=O)c4cc([N+](=O)[O-])c(NCC5(F)CCN(C6COC6)CC5)c5[nH]cnc45)cc3F)CC2)C1 [US20250034135, Compound 020] | – | < 10 | – |
| COc1ccc(CN2CCN(C3CC4(C3)CN(c3cc(Oc5cnc6[nH]ccc6c5)c(C(=O)NS(=O)(=O)c5ccc(NCC6(F)CCN(C7COC7)CC6)c([N+](=O)[O-])c5)cc3F)C4)C(c3ccccc3C(C)C)C2)cc1 (stereo unspecified) [US20250034135, Compound 058] | > 1000 | – | IC50 [4]: < 10 nM |
| COc1ccccc1CN1CCN(C2CC3(CCN(c4cc(Oc5cnc6[nH]ccc6c5)c(C(=O)NS(=O)(=O)c5ccc(NCC6(F)CCOCC6)c([N+](=O)[O-])c5)cc4F)CC3)C2)[C@H](c2ccccc2C(C)C)C1 [US20250034135, Compound 185] | > 500 | < 10 | – |
| CC(C)c1ccccc1[C@@H]1CCCN1C1CC2(CCN(c3cc(Oc4cnc5[nH]ccc5c4)c(C(=O)NS(=O)(=O)c4cc([N+](=O)[O-])c(NCC5(F)CCN(C6COC6)CC5)c5c4ncn5C)cc3F)CC2)C1 [US20250034135, Compound 036] | – | < 10 | – |
| CC(C)c1ccccc1[C@@H]1CCCN1C1CC2(CCN(c3ccc(C(=O)NS(=O)(=O)c4cc([N+](=O)[O-])c(NCC5(F)CCN(C(C)C)CC5)c5c4ncn5C)c(Oc4cnc5[nH]ccc5c4)c3)CC2)C1 [US20250034135, Compound 008] | – | < 10 | – |
| COc1ccc(CN2CCN(C3CC4(CCN(c5cc(Oc6cnc7[nH]ccc7c6)c(C(=O)NS(=O)(=O)c6ccc(NCC7(F)CCN(C8COC8)CC7)c([N+](=O)[O-])c6)cc5F)CC4)C3)C(c3ccccc3C(C)C)C2)cc1 (stereo unspecified) [US20250034135, Compound 057] | – | < 10 | – |

Further lines, with some results ahead:

| IC50 [1] [nM] | IC50 [2] [nM] | Structure (SMILES) | further results |
| --- | --- | --- | --- |
| > 500 | – | CC(C)c1ccccc1[C@@H]1CN(Cc2cnn(C)c2)CCN1C1CC2(CCN(c3cc(Oc4cnc5[nH]ccc5c4)c(C(=O)NS(=O)(=O)c4ccc(NC[C@H]5CC[C@](C)(O)CC5)c([N+](=O)[O-])c4)cc3F)CC2)C1 [US20250034135, Compound 238] | – |
| – | < 10 | CC(C)c1ccccc1[C@@H]1CN(Cc2c(F)cccc2F)CCN1C1CC2(CCN(c3cc(Oc4cnc5[nH]ccc5c4)c(C(=O)NS(=O)(=O)c4ccc(NCC5(F)CCOCC5)c([N+](=O)[O-])c4)cc3F)CC2)C1 [US20250034135, Compound 192] | – |
| – | < 10 | CC(C)c1ccccc1[C@@H]1CN(Cc2ccc(F)cc2F)CCN1C1CC2(CCN(c3cc(Oc4cnc5[nH]ccc5c4)c(C(=O)NS(=O)(=O)c4ccc(NCC5(F)CCOCC5)c([N+](=O)[O-])c4)cc3F)CC2)C1 [US20250034135, Compound 191] | – |
